Tests used:
[1] = test system: ventral prostate weight; assay: Subcutaneous androgenic potency, ventral prostate weight assay in orchidectomized immature rats (injection daily for seven days); format: in vivo, Sprague-Dawley rats
Description: (§1) Immature (about 21-day-old) Sprague-Dawley rats were orchidectomized under anesthesia, and randomly assignee to groups of ten animals for each dose level of the active undergoing testing. Each active was dissolved in 10% ethanol/sesame oil and administered by gavage (oral) or subcutaneous injection each day for seven days beginning on the date of the orchidectomy. The animals were sacrificed 24 hours after the last dose, and the ventral prostate and seminal vesicles were excised, cleaned of fat and connective tissue, blotted on moist filter paper and weighed to the nearest 0.1 mg. Regression analysis was performed by conventional methods using a PROPHET data management system. Ventral prostate weight was used as the endpoint because it is the sensitive organ to androgenic stimulation.
as §1, with “by” for “by gavage (oral) or”, “mg. See, e.g., Hershberger, L. et al, Myotrophic Activity of 19-nortestosterone And Other Steroids Determined By Modified Levator And Muscle Method, Proc. Soc. Exptl. Bid. Med. 83 175–180 (1953).” for “mg.”, “system. See, e.g., Bliss, C., The Statistics of Bioassay (Academic Press, New York, 1952); Hollister, C., Nucleic Acids Res. 16 1873–75 (1988).” for “system.”
Immature (about 22-day-old) Sprague-Dawley male rats were orchidectomized under anesthesia, and randomly assignee to groups of ten animals for each dose level of the active undergoing testing. […] Illumination was controlled for 14 hour periods of light and 10 hours of darkness.
Each active was administered by subcutaneous injection of 0.6 mg of test material in aqueous suspending vehicle (ASV) and/or an oily vehicle (10% ethanol/sesame oil) on the day of surgery. Testosterone enanthate in sesame oil was used as a standard. The ventral prostate and seminal vesicles were excised, cleaned of fat and connective tissue, blotted on moist filter paper and weighed to the nearest 0.1 mg. Regression analysis was performed by conventional methods using a PROPHET data management system. Ventral prostate weight was used as the endpoint because it is the sensitive organ to androgenic stimulation.

[2] = test system: ventral prostate weight; assay: Duration of androgenic activity after subcutaneous injection, ventral prostate weight over weeks in orchidectomized immature rats; format: in vivo, Sprague-Dawley rats; settings: for ventral prostate weight over time after single subcutaneous injection (in words): 0.6 mg in 0.2 ml aqueous vehicle; for AUC of ventral prostate weight, times greater than for testosterone enanthate in oily carrier: active in aqueous vehicle versus testosterone enanthate in sesame oil/oily carrier, single subcutaneous 0.6 mg
Description: as §1, with “was” for “was dissolved in 10% ethanol/sesame oil and”, “by” for “by gavage (oral) or”
Except for testosterone enanthate, each active was formulated in two different carriers: (1) an aqueous suspension and (2) in sesame oil. Testosterone enanthate was formulated using the sesame oil carrier only, because it exists as a liquid at room temperature and could not therefore be formulated as an aqueous suspension.
(§2) The carrier used to provide the aqueous suspension was formulated as follows: 1 g benzyl alcohol, 0.5 g sodium carboxylethyl cellulose 50, 0.376 g disodium hydrogen phosphate dihydrate, 1.495 g sodium dihydrogen phosphate dihydrate, with water for injection (WFI) being added to bring volume of the carrier up to 100 ml.
Each formulation was prepared at a concentration of 0.6 mg/0.2 ml.
Immature (about 21-day-old) Sprague-Dawley rats were orchidectomized under anesthesia, and randomly assignee to groups of 40 or more. Animals received a single subcutaneous injection of 0.6 mg of each ester in 0.2 ml of an aqueous suspending carrier and/or oily carrier (10% ethanol/90% sesame oil or ethyl oleate) on the date of the orchidectomy. In cases where the ester was not solid at room temperature, 10% ethanol/sesame oil or ethyl oleate was used as the carrier. In this example, the carrier used to provide the aqueous suspension was formulated as follows: 1 g benzyl alcohol, 0.5 g sodium carboxylethyl cellulose 50, 0.376 g disodium hydrogen phosphate dihydrate, 1.495 g sodium dihydrogen phosphate dihydrate, with water for injection (WFI) being added to bring volume of the carrier up to 100 ml.
Five animals from each group were sacrificed at weekly or biweekly intervals, and the ventral prostate and seminal vesicles were excised, cleaned of fat and connective tissue, blotted on moist filter paper and weighed to the nearest 0.1 mg.
Ventral prostate weight was used as the endpoint because it is the sensitive organ to androgenic stimulation. Regression analysis was performed by conventional methods using the PROPHET data management system previously identified.
Immature (about 21-day-old) Sprague-Dawley rats were orchidectomized under anesthesia, and randomly assignee to groups of 40 or more. Animals received a single subcutaneous injection of 0.6 mg of the undecanoate in 0.2 ml of an aqueous suspending carrier and/or oily carrier (10% ethanol/90% sesame oil containing 5 mg/ml chlorobutanol as a preservative, or ethyloleate) on the date of the orchidectomy. The enanthate ester was formulated using the 10% ethanol/sesame oil or ethyloleate carrier as a first standard, with the 10% ethanol/sesame oil carrier used as a second standard.
as §2, with “In this example, the” for “The”
Immature (about 21-day-old) Sprague-Dawley rats were orchidectomized under anesthesia, and randomly assignee to groups of 40 or more. […] The enanthate ester was formulated using the 10% ethanol/sesame oil or ethyloleate carrier as a first standard, with the 10% ethanol/sesame oil carrier used as a second standard.

SMILES	activity after subcutaneous administration (in words) ([1]; subcutaneous injection daily for 7 days in 10% ethanol/sesame oil, ventral prostate weight)	Androgenic Potency (activity of corresponding alcohol) ([1]; ventral prostate weight assay following subcutaneous administration, alcohol of G = 1.0 (assigned), value is for the free alcohol of the listed ester)	ventral prostate weight over time after single subcutaneous injection (in words) [2]	activity in potency and duration after subcutaneous injection (in words), FIG. 5 ([2]; 0.6 mg/0.2 ml, aqueous suspension or sesame oil, ventral prostate weight)	AUC of ventral prostate weight, times greater than for testosterone enanthate in oily carrier [2]	AUC of ventral prostate weight over the 10-week period, rank among bucyclate esters ([2]; single subcutaneous 0.6 mg suspended in aqueous carrier, FIG. 9)	subcutaneous androgenic activity relative to testosterone ([1]; subcutaneous injection daily for 7 days in 10% ethanol/sesame oil (oily carrier), ventral prostate weight) [times]	ventral prostate weight over time after single subcutaneous injection (in words) ([2]; listed as CDB-4521)	area under the curve (AUC, trapezoidal rule) of ventral prostate weight ([2]; single subcutaneous 0.6 mg in aqueous vehicle, 10 week period, FIG. 15) [mg-weeks]
CCCC[C@H]1CC[C@H](C(=O)O[C@H]2CC[C@H]3[C@H]4[C@H]([C@@H](C)C[C@]23C)[C@H]2CCC(=O)C=C2C[C@H]4C)CC1 (relative stereo) [Compound I, 7α,11β-Dimethyl-17β-hydroxy-4-estren-3-one 17β-trans-4-n-butylcyclohexane carboxylate]	relatively weak activity	19.3	most dramatic increase and maintenance of ventral prostate weight	far exceeds the activity exhibited by the comparative esters	about 3 times	greatest AUC	–	–	–
CCCCCCCCCCC(=O)O[C@H]1CC[C@H]2[C@H]3[C@H]([C@@H](C)C[C@]12C)[C@H]1CCC(=O)C=C1C[C@H]3C [Compound II, 7α,11β-dimethyl-17β-hydroxyestr-4-en-3-one 17-undecanoate]	–	–	–	–	about 3 times	–	0.52	most dramatic increases and maintenance of ventral prostate weight	1817

Reference: patent publication US7196074B2, “Methods of making, using and pharmaceutical formulations comprising 7α, 11β-dimethyl-17β-hydroxyestra-4, 14-dien-3-one and 17 esters thereof” (The United States of America as represented by the …, priority 2000, dated 2007)
